Source: PMC6544370 (Nature, 2019)

Experiments:
[1] = target: T1, STING (Stimulator of Interferon Genes) (Mus musculus, UniProt Q3TBT3); assay: native PAGE gel shift; format: binding; details: pH 7.5, 60 mM KCl, 5 mM Mg(OAc)2; labelled compound; 4-100 μM protein
T1 sequence (Q3TBT3 139-378 limits assumed): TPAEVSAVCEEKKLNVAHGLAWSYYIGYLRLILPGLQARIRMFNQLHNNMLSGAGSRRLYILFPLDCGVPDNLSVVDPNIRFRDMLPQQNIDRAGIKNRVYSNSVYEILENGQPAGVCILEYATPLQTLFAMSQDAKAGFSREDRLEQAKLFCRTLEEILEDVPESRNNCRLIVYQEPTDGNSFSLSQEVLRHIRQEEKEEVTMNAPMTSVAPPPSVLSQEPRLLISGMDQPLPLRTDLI

[2] = target: Ec-CdnD02 (CD-NTase038) (Enterobacter hormaechei, UniProt P0DSP4); details: with GTP; pH 9.4, 5 mM Mg(OAc)2, 37 °C; product cAAG
[3] = target: T2, Em-CdnE (Elizabethkingia meningoseptica, UniProt P0DSP2); assay: X-ray crystal structure; format: binding
T2 sequence (P0DSP2 1-292): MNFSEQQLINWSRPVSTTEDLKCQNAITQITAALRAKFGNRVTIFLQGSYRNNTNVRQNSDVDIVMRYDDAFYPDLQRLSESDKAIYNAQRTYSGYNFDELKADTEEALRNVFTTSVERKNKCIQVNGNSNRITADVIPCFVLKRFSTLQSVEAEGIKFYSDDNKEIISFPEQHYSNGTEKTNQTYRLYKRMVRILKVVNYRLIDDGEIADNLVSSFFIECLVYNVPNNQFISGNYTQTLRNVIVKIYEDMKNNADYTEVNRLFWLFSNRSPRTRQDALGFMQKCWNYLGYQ

[4] = target: T3, Rm-CdnE (Rhodothermus marinus, UniProt G2SLH8); assay: X-ray crystal structure; format: binding; details: with Upnpp and MgCl2; nonhydrolyzable substrate analogue
T3 sequence (G2SLH8 1-288): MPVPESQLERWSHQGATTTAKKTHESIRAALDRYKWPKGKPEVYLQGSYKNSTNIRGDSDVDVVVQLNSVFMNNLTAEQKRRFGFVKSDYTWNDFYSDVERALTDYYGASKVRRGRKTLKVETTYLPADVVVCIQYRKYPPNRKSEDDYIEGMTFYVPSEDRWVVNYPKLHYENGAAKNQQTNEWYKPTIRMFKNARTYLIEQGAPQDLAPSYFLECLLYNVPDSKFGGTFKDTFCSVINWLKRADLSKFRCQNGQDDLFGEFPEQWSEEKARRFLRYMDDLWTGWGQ

Chain of Ec-CdnD02 (CD-NTase038) (P0DSP4 whole entry): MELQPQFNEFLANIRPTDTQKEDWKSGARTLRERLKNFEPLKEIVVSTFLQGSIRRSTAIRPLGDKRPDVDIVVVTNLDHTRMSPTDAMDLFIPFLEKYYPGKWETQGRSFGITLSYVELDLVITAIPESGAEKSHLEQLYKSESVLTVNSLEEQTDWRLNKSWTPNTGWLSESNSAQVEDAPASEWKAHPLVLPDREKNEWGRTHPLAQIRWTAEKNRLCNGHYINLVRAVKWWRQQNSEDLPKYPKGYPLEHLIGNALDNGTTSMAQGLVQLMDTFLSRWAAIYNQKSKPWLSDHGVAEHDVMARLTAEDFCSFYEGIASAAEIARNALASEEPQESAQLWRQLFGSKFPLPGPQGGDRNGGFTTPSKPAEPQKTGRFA

**Q.** With `Nc1nc2c(ncn2[C@@H]2O[C@@H]3COP(=O)(O)O[C@H]4[C@@H](O)[C@H](n5cnc6c(N)ncnc65)O[C@@H]4COP(=O)(O)O[C@H]3[C@H]2O)c(=O)[nH]1` [3′3′ cGAMP] as the compound, how does the “native PAGE gel shift” value [1] read?
**A.** STING bound to all four cyclic dipurine molecules with high affinity

**Q.** With `Nc1ncnc2c1ncn2[C@@H]1O[C@H](COP(=O)(O)OP(=O)(O)OP(=O)(O)O)[C@@H](O)[C@H]1O` [ATP] as the compound, how does the “radiolabelled NTP, silica TLC” value [2] read?
**A.** ATP and GTP were necessary and sufficient for product formation

**Q.** `Nc1nc2c(ncn2[C@@H]2O[C@H](COP(=O)(O)OP(=O)(O)OP(=O)(O)O)[C@@H](O)[C@H]2O)c(=O)[nH]1` [GTP] was tested. Which X-ray crystal structure ([3]; with Apcpp and Mg2+) did it give?
**A.** Crystal structure of Em-CdnE in complex with GTP and nonhydrolyzable ATP

**Q.** What does the source list for `Nc1ncnc2c1ncn2[C@@H]1O[C@H](COP(=O)(O)CP(=O)(O)OP(=O)(O)O)[C@@H](O)[C@H]1O` [Apcpp]?
**A.** X-ray crystal structure [4]: structure of Rm-CdnE in complex with nonhydrolyzable ATP and UTP; X-ray crystal structure ([3]; with GTP and Mg2+, nonhydrolyzable substrate analogue): Crystal structure of Em-CdnE in complex with GTP and nonhydrolyzable ATP

**Q.** `Nc1nc2c(ncn2[C@@H]2O[C@@H]3COP(=O)(O)O[C@H]4[C@@H](O)[C@H](n5cnc6c(=O)[nH]c(N)nc65)O[C@@H]4COP(=O)(O)O[C@H]3[C@H]2O)c(=O)[nH]1` [c-di-GMP] was tested. Which “native PAGE gel shift” value [1] did it give?
**A.** STING bound to all four cyclic dipurine molecules with high affinity
